Laboratory results as given in patent US11970498B2, “CDK2 inhibitors” (BLUEPRINT MEDICINES CORPORATION, priority 2021, dated 2024).

Assays:
[1] = target: CDK2/Cyclin E (Homo sapiens, UniProt P24941); experiment: CDK2/Cyclin E biochemical phosphorylation assay (Caliper mobility shift); conditions: apparent IC50; 1.0 mM ATP or ATP Km; 1.25 nM enzyme; 25° C.; read-out: CDK2/cyclin E1 IC50
How it was run: (§1)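 7.5 µM 5-FAM-QSPKKG-CONH2 peptide phosphorylated by CDK2/Cyclin E (1.25 nM) or GST-CDK1/Cyclin B1 (1.5 nM) at 1.0 mM ATP or ATP Km, in HEPES pH 7.5, MgCl2, Brij-35, DTT, 1% DMSO, 25 °C to 10–20% conversion. EDTA stop; Caliper mobility-shift readout; apparent IC50 from percent activity vs log concentration.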

[2] = target: T1, CDK1/Cyclin B1, GST-tag (Homo sapiens, UniProt P06493); experiment: CDK1/Cyclin B1 biochemical phosphorylation assay (Caliper mobility shift); conditions: apparent IC50; 1.0 mM ATP or ATP Km; 1.5 nM enzyme; 25° C.
T1 construct: GST
T1 sequence (P06493 whole entry): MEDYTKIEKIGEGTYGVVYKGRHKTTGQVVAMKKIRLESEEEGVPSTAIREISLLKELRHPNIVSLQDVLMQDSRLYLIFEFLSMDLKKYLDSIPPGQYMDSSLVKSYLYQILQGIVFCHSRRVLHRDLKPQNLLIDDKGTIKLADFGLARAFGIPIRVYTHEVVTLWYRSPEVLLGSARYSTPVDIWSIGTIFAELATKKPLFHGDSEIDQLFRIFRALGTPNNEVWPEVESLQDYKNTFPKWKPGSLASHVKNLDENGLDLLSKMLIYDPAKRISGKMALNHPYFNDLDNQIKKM
T1 sequence (P14635 whole entry partner): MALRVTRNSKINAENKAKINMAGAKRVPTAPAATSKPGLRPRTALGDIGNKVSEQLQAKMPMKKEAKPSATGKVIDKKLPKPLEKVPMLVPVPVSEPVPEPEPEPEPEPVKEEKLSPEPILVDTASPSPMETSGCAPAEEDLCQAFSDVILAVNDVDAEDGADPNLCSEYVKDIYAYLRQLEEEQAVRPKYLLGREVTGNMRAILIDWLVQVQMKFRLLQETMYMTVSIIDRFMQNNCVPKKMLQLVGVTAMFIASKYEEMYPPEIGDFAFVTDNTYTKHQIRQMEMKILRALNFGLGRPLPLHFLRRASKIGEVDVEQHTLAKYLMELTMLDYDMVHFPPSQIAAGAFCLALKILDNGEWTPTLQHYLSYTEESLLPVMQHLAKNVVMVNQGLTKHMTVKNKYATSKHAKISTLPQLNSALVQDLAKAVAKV
How it was run: as §1

Row | Structure (SMILES) | IC50 [1] [nM] | IC50 [2] [nM]
1 | O[C@H]1CC[C@@H](n2ncc3ncc(Nc4cc(OC(F)F)[nH]n4)nc32)C1 (single isomer, unassigned) [Example 208] | ≤ 10 | ≥ 500
2 | FC(F)Oc1cc(Nc2cnc3cnn(C[C@H]4CCOC4)c3n2)n[nH]1 (single isomer, unassigned) [Example 144, (S)-N-(5-(difluoromethoxy)-1H-pyrazol-3-yl)-1-((tetrahydrofuran-3-yl)methyl)-1H-pyrazolo[3,4-b]pyrazin-6-amine or (R)-N-(5-(difluoromethoxy)-1H-pyrazol-3-yl)-1-((tetrahydrofuran-3-yl)methyl)-1H-pyrazolo[3,4-b]pyrazin-6-amine] | ≤ 10 | < 100
3 | O=C1C[C@@H](Cn2ncc3ncc(Nc4cc(OC(F)F)[nH]n4)nc32)CN1 (single isomer, unassigned) [Example 21, (R)-4-((6-((5-(difluoromethoxy)-1H-pyrazol-3-yl)amino)-1H-pyrazolo[3,4-b]pyrazin-1-yl)methyl)pyrrolidin-2-one or (S)-4-((6-((5-(difluoromethoxy)-1H-pyrazol-3-yl)amino)-1H-pyrazolo[3,4-b]pyrazin-1-yl)methyl)pyrrolidin-2-one] | 20 to 30 | ≥ 500
4 | FC(F)Oc1cc(Nc2cnc3cnn(C[C@@H]4CC4(F)F)c3n2)n[nH]1 (single isomer, unassigned) [Example 164, (R)-1-((2,2-difluorocyclopropyl)methyl)-N-(5-(difluoromethoxy)-1H-pyrazol-3-yl)-1H-pyrazolo[3,4-b]pyrazin-6-amine or (S)-1-((2,2-difluorocyclopropyl)methyl)-N-(5-(difluoromethoxy)-1H-pyrazol-3-yl)-1H-pyrazolo[3,4-b]pyrazin-6-amine] | 10 to 20 | ≥ 500
5 | C[C@@H](c1ccc(F)cc1)n1ncc2ncc(Nc3cc(OC(F)F)[nH]n3)nc21 [Example 47, (S)-N-(5-(difluoromethoxy)-1H-pyrazol-3-yl)-1-(1-(4-fluorophenyl)ethyl)-1H-pyrazolo[3,4-b]pyrazin-6-amine] | ≤ 10 | ≥ 500
6 | FC[C@@H](c1ccccc1)n1ncc2ncc(Nc3cc(OC(F)F)[nH]n3)nc21 (single isomer, unassigned) [Example 89, (R)-N-(5-(difluoromethoxy)-1H-pyrazol-3-yl)-1-(2-fluoro-1-phenylethyl)-1H-pyrazolo[3,4-b]pyrazin-6-amine or (S)-N-(5-(difluoromethoxy)-1H-pyrazol-3-yl)-1-(2-fluoro-1-phenylethyl)-1H-pyrazolo[3,4-b]pyrazin-6-amine] | ≤ 10 | ≥ 500
7 | O[C@@H]1C[C@H]1Cn1ncc2ncc(Nc3cc(OC(F)F)[nH]n3)nc21 (single isomer, unassigned) [Example 179, (1R,2S)-2-((6-((5-(difluoromethoxy)-1H-pyrazol-3-yl)amino)-1H-pyrazolo[3,4-b]pyrazin-1-yl)methyl)cyclopropan-1-ol or (1S,2R)-2-((6-((5-(difluoromethoxy)-1H-pyrazol-3-yl)amino)-1H-pyrazolo[3,4-b]pyrazin-1-yl)methyl)cyclopropan-1-ol] | 30 to 100 | ≥ 500
8 | CC(C)(C1CCOCC1)n1ncc2ncc(Nc3cc(OC(F)F)[nH]n3)nc21 [Example 127, N-(5-(difluoromethoxy)-1H-pyrazol-3-yl)-1-(2-(tetrahydro-2H-pyran-4-yl)propan-2-yl)-1H-pyrazolo[3,4-b]pyrazin-6-amine] | 20 to 30 | ≥ 500
9 | C[C@@H](c1cnccc1F)n1ncc2ncc(Nc3cc(OC(F)F)[nH]n3)nc21 (single isomer, unassigned) [Example 173, (S)-N-(5-(difluoromethoxy)-1H-pyrazol-3-yl)-1-(1-(4-fluoropyridin-3-yl)ethyl)-1H-pyrazolo[3,4-b]pyrazin-6-amine or (R)-N-(5-(difluoromethoxy)-1H-pyrazol-3-yl)-1-(1-(4-fluoropyridin-3-yl)ethyl)-1H-pyrazolo[3,4-b]pyrazin-6-amine] | 20 to 30 | ≥ 500
10 | COc1cc(Nc2cnc3cnn([C@@H](C)C4CC4)c3n2)n[nH]1 [Example 68, (S)-1-(1-cyclopropylethyl)-N-(5-methoxy-1H-pyrazol-3-yl)-1H-pyrazolo[3,4-b]pyrazin-6-amine] | 10 to 20 | ≥ 500
11 | C[C@@H](C1CCOCC1)n1nc(F)c2ncc(Nc3cc(OC(F)F)[nH]n3)nc21 [Example 124, (S)-N-(5-(difluoromethoxy)-1H-pyrazol-3-yl)-3-fluoro-1-(1-(tetrahydro-2H-pyran-4-yl)ethyl)-1H-pyrazolo[3,4-b]pyrazin-6-amine] | ≤ 10 | 100 to 500
12 | FC(F)Oc1cc(Nc2cnc3cnn(C[C@@H]4COCCO4)c3n2)n[nH]1 [Example 88, (R)-1-((1,4-dioxan-2-yl)methyl)-N-(5-(difluoromethoxy)-1H-pyrazol-3-yl)-1H-pyrazolo[3,4-b]pyrazin-6-amine] | ≤ 10 | ≥ 500

The remaining lines, values ahead:

Row | IC50 [1] [nM] | IC50 [2] [nM] | Structure (SMILES)
13 | 10 to 20 | ≥ 500 | O[C@H]1CC[C@@H](Cn2ncc3ncc(Nc4cc(OC(F)F)[nH]n4)nc32)CC1 (single isomer, unassigned) [Example 171, (1s,4s)-4-((6-((5-(difluoromethoxy)-1H-pyrazol-3-yl)amino)-1H-pyrazolo[3,4-b]pyrazin-1-yl)methyl)cyclohexan-1-ol or (1r,4r)-4-((6-((5-(difluoromethoxy)-1H-pyrazol-3-yl)amino)-1H-pyrazolo[3,4-b]pyrazin-1-yl)methyl)cyclohexan-1-ol]
14 | 30 to 100 | ≥ 500 | FC(F)Oc1cc(Nc2cnc3cnn(Cc4cscn4)c3n2)n[nH]1 [Example 52, N-(5-(difluoromethoxy)-1H-pyrazol-3-yl)-1-(thiazol-4-ylmethyl)-1H-pyrazolo[3,4-b]pyrazin-6-amine]
15 | 20 to 30 | ≥ 500 | COc1cc(Nc2cnc3cnn(CC4(C)COC4)c3n2)n[nH]1 [Example 133, N-(5-methoxy-1H-pyrazol-3-yl)-1-((3-methyloxetan-3-yl)methyl)-1H-pyrazolo[3,4-b]pyrazin-6-amine]
16 | 20 to 30 | ≥ 500 | FC(F)Oc1cc(Nc2cnc3cnn(C[C@@H]4CCCCO4)c3n2)n[nH]1 [Example 103, (S)-N-(5-(difluoromethoxy)-1H-pyrazol-3-yl)-1-((tetrahydro-2H-pyran-2-yl)methyl)-1H-pyrazolo[3,4-b]pyrazin-6-amine]
17 | 30 to 100 | ≥ 500 | FC(F)Oc1cc(Nc2cnc3cnn(Cc4nccs4)c3n2)n[nH]1 [Example 54, N-(5-(difluoromethoxy)-1H-pyrazol-3-yl)-1-(thiazol-2-ylmethyl)-1H-pyrazolo[3,4-b]pyrazin-6-amine]
18 | 10 to 20 | ≥ 500 | Fc1ccc(Cn2ncc3ncc(Nc4cc(OC(F)F)[nH]n4)nc32)cc1 [Example 40, N-(5-(difluoromethoxy)-1H-pyrazol-3-yl)-1-(4-fluorobenzyl)-1H-pyrazolo[3,4-b]pyrazin-6-amine]
19 | 30 to 100 | ≥ 500 | FC(F)Oc1cc(Nc2cnc3cnn(C[C@H]4CCCO4)c3n2)n[nH]1 [Example 113, (R)-N-(5-(difluoromethoxy)-1H-pyrazol-3-yl)-1-((tetrahydrofuran-2-yl)methyl)-1H-pyrazolo[3,4-b]pyrazin-6-amine]
20 | 20 to 30 | ≥ 500 | COc1cc(Nc2cnc3cnn(C[C@H]4C[C@@H]4C#N)c3n2)n[nH]1 (single isomer, unassigned) [Example 197, (1R,2R)-2-((6-((5-methoxy-1H-pyrazol-3-yl)amino)-1H-pyrazolo[3,4-b]pyrazin-1-yl)methyl)cyclopropane-1-carbonitrile or (1S,2S)-2-((6-((5-methoxy-1H-pyrazol-3-yl)amino)-1H-pyrazolo[3,4-b]pyrazin-1-yl)methyl)cyclopropane-1-carbonitrile]
21 | > 100 | ≥ 500 | N#C[C@@]1(Cn2ncc3ncc(Nc4cc(OC(F)F)[nH]n4)nc32)CCOC1 (single isomer, unassigned) [Example 170, (R)-3-((6-((5-(difluoromethoxy)-1H-pyrazol-3-yl)amino)-1H-pyrazolo[3,4-b]pyrazin-1-yl)methyl)tetrahydrofuran-3-carbonitrile or (S)-3-((6-((5-(difluoromethoxy)-1H-pyrazol-3-yl)amino)-1H-pyrazolo[3,4-b]pyrazin-1-yl)methyl)tetrahydrofuran-3-carbonitrile]
22 | ≤ 10 | ≥ 500 | C[C@@H](c1ccccn1)n1ncc2ncc(Nc3cc(OC(F)F)[nH]n3)nc21 [Example 4, (S)—N-(5-(difluoromethoxy)-1H-pyrazol-3-yl)-1-(1-(pyridin-2-yl)ethyl)-1H-pyrazolo[3,4-b]pyrazin-6-amine]
23 | > 100 | ≥ 500 | COc1cc(Nc2cnc3cnn([C@@H](C)c4cc(F)ccn4)c3n2)n[nH]1 (single isomer, unassigned) [Example 187, (R)-1-(1-(4-fluoropyridin-2-yl)ethyl)-N-(5-methoxy-1H-pyrazol-3-yl)-1H-pyrazolo[3,4-b]pyrazin-6-amine or (S)-1-(1-(4-fluoropyridin-2-yl)ethyl)-N-(5-methoxy-1H-pyrazol-3-yl)-1H-pyrazolo[3,4-b]pyrazin-6-amine]
24 | ≤ 10 | ≥ 500 | Cc1nn(Cc2cccnc2)c2nc(Nc3cc(OC(F)F)[nH]n3)cnc12 [Example 84, N-(5-(difluoromethoxy)-1H-pyrazol-3-yl)-3-methyl-1-(pyridin-3-ylmethyl)-1H-pyrazolo[3,4-b]pyrazin-6-amine]
